Set-up: Initial absorbance (@600 nm): dose or concentration left out as unconfirmed
From the text: The final criteria for the claimed composition is the ability for the dry product to redissolve into a soluble/colloidal water-based solution at an example concentration of 10 g/L. Before redissolving in water, the dry product is ground into a powder using any mechanical grinding/milling/pulverizing methods, in this case a mortar and pestle.

## paramylon [Sample A]
  Absorbance at 60 min/Initial absorbance: 0.535
  Initial absorbance (@600 nm): 1.950
  Solubility as defined by the absorbance method (soluble if the decrease is not more than 25% after 60 minutes): NOT SOLUBLE
